Data as given in patent publication US20180193294A1, “Dehydroabietic acid (DHAA) derivatives for use as ion channel openers” (priority 2015, published 2018).

Legend:
3R Shaker K channel = 3R Shaker K channel (Drosophila melanogaster, UniProt P08510, A359R/M356R); test: physchem; format: cell-based; details: Table 1; 100 μM, pH 7.4, Xenopus oocytes
Outline: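 Two-electrode voltage clamp at 20-23° C. in oocytes (also CHO-K1 stable line, manual patch clamp) expressing Shaker H4 lacking N-type inactivation; 1K extracellular solution, pH 7.4, holding −80 mV, 100-ms 5-mV steps up to +70 mV. Compound-induced G(V) shift taken at 10% of control Gmax (oocytes) or as V1/2 difference (CHO-K1).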

[1] = system: dorsal root ganglion (DRG) neurons; test: Resting membrane potential of DRG neurons, whole-cell current clamp; format: cell-based, mice; details: 10 μM, pH 7.4, 120 s application
Experimental: All animal experiments were approved by the local Animal Care and Use Committee and followed international guidelines. Five female 7-12 week-old C57BL/6 mice (Scanbur) were used for this study. The mice were anaesthetized with isoflurane and decapitated. Dorsal root ganglia (DRG) were dissected from all spinal levels and enzymatically digested with collagenase (250 CDU/ml) for 15 min, and then trypsin (1 mg/ml) was added for another 30 min. The ganglia were centrifuged and resuspended in Leibovitz L-15 media with glutamine, supplemented with 10% fetal calf serum, 38 mM glucose, 24 mM NaHCO3 and penicillin/streptomycin. The ganglia were triturated and the DRG neurons plated on poly-D-lysine coated plastic coverslips. The neurons were cultured at 37° C. with 5% CO2 for 2-3 days before the electrophysiological recordings.
All manual electrophysiological recordings were performed at room temperature (20-23° C.), using a GeneClamp 500B amplifier (for oocytes) or a Axopatch 200B amplifier (for manual patch clamp of CHO—K1 cells and DRG neurons) and a Digidata 1440A digitizer and pClamp 10 software (all from Molecular Devices, Inc., Sunnyvale, Calif., USA). Compounds were dissolved to 100 mM in 99.5% EtOH and stored at −20° C. Compounds were diluted in extracellular solution to the desired test concentration.
CHO—K1 Cells were plated on coverslips 2 h before the manual electrophysiological recordings. Coverslips with CHO—K1 cells or DRG neurons were placed in a recording chamber and perfused with extracellular solution by a gravity-fed perfusion system. Substances were applied by a pressurized, automated OctaFlow perfusion system (ALA Scientific Instruments). The signals were sampled at 5-20 kHz after low-pass filtering at 2-5 kHz. For CHO—K1 cells the intracellular solution contained (in mM): 120 K-gluconate, 10 KCl, 5 EGTA, 10 HEPES, 4 Mg-ATP, 0.3 Na-GTP, pH 7.3; the extracellular solution contained (in mM): 135 NaCl, 4 KCl, 10 HEPES, 1 MgCl2, 1.8 CaCl2, 10 glucose, pH 7.4. Currents were evoked in CHO—K1 cells in whole-cell voltage-clamp mode from a holding potential of −80 mV by 100-ms long, 10-mV steps ranging from −80 to +80 mV.
For DRG neurons the intracellular solution contained (in mM): 120 K-gluconate, 10 KCl, 1 EGTA, 10 HEPES, 4 Mg-ATP, 0.3 Na-GTP, pH 7.3; the extracellular solution contained (in mM): 144 NaCl, 2.5 KCl, 10 HEPES, 0.5 MgCl2, 2 CaCl2, 10 glucose, pH 7.4. A liquid-junction potential of approximately −14 mV was corrected for. […] Small and medium sized DRG neurons were selected for whole-cell current-clamp recording. 10 μM of the compounds were applied for 120 s to study the effect on the resting membrane potential, and for 45-120 s to study the effects on evoked action potentials. To evoke action potentials 800-ms depolarizing pulses
The compound effect on the resting membrane potential Vm was determined by subtracting the control pre-compound Vm from the Vm at the end of the 120 s application of test compound.

Sequence of 3R Shaker K channel (P08510 whole entry M356R/A359R): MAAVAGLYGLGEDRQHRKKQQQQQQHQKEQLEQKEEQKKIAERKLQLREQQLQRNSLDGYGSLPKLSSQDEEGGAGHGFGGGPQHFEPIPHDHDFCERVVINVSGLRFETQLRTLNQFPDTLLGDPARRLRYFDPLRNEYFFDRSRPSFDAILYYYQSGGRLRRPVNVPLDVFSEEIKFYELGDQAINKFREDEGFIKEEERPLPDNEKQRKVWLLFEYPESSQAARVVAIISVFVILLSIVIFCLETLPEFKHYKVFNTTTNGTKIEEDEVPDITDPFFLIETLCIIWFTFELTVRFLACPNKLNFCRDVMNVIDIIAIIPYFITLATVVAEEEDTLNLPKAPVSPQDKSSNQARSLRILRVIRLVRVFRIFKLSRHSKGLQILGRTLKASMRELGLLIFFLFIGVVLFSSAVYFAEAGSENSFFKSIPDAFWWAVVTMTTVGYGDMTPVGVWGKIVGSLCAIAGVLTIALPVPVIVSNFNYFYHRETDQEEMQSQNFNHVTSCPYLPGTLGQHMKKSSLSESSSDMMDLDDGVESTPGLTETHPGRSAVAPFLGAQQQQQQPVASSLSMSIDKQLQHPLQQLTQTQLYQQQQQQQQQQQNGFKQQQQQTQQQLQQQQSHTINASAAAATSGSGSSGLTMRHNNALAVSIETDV

Structure (SMILES) | G(V) shift (3R Shaker K channel) | shift of the resting membrane potential (ΔVm) [1]
CC(C)c1cc2c(cc1Cl)[C@@]1(C)CCC[C@@](C)(C(=O)O)C1CC2 (stereo partly drawn) [Wu13, (1R,4aS)-6-chloro-7-isopropyl-1,4a-dimethyl-1,2,3,4,4a,9,10,10a-octahydrophenanthrene-1-carboxylic acid] | −15.8 mV | most potent compounds on the DRG neurons
C=CCO/N=C1\CC2[C@](C)(C(=O)O)CCC[C@]2(C)c2cc(Cl)c(C(C)C)cc21 (stereo partly drawn) [Wu23, (1R,4aS,E)-9-((allyloxy)imino)-6-chloro-7-isopropyl-1,4a-dimethyl-1,2,3,4,4a,9,10,10a-octahydrophenanthrene-1-carboxylic acid] | −26.7 mV | intermediately potent hyperpolarizers
CO/N=C1\CC2[C@](C)(C(=O)O)CCC[C@]2(C)c2ccc(C(C)C)c(Br)c21 (stereo partly drawn) [Wu74, (1R,4aS,E)-8-bromo-7-isopropyl-9-(methoxyimino)-1,4a-dimethyl-1,2,3,4,4a,9,10,10a-octahydrophenanthrene-1-carboxylic acid] | −14.7 mV | intermediately potent hyperpolarizers
